{"source": "patent US8257915B2", "about": "“Farnesyltransferase inhibitors for treatment of laminopathies, cellular aging and atherosclerosis” (Progeria Research Foundation, Inc., priority 2002, dated 2012)", "key": {"[1]": {"system": "human brain, lung, prostate, pancreas, colon, and bladder tumor xenografts", "conditions": "nude mice; cited from earlier work"}, "[2]": {"system": "several human cancer cell lines", "conditions": "cited from earlier work"}, "[3]": {"conditions": "Phase III trials, including trials involving children; cited from earlier work"}, "[4]": {"system": "protein farnesylation", "conditions": "Phase I clinical trial; cited from earlier work"}, "[5]": {"system": "BCR/ABL", "conditions": "cell culture and mouse models; cited from earlier work"}, "[6]": {"system": "HGPS fibroblast lines AG06917, AG11513, AG11498", "assay": "Nuclear blebbing of HGPS skin fibroblasts treated with FTI", "type": "cell-based, human", "conditions": "once daily 0, 0.5, 1.0, 2.0 μM for three days; p<0.0001", "procedure": "Cell Culture. Cell lines used were the normal human fibroblast line, AG06299, and HGPS fibroblast lines: AG06917, AG11513, and AG11498 (obtained from the NIA Aging Cell Culture Repository, Coriell Institute for Medical Research, Camden, N.J.). Fibroblasts were cultured in minimal essential medium (MEM; Invitrogen/Gibco) supplemented with 15% FBS (HiClone), 2 mM L-glutamine, penicillin (50 U/ml) and streptomycin ([…]). HeLa and HEK-293 cell lines were cultured in DMEM (Invitrogen/Gibco) supplemented with 10% fetal bovine serum and antibiotics.\n(§1) FTI Treatment. At the time of transient transfection, HeLa cells were treated with one dose of 0, 0.5, 1.0, or 2.0 μM of the selective FTI lonafarnib [Sarasar, SCH66336, (Schering-Plough)]. HEK-293 cells were treated with one dose of 0, 1, 2, 5, or 10 μM of the selective FTI L-744832 (Biomol). […] These FTIs have the same mechanism of action and can be used interchangeably to inhibit protein farnesylation in vitro. However, only lonafarnib is a clinical candidate. Normal and HGPS fibroblasts were treated with one daily dose of 0, 0.5, 1.0, or 2.0 μM of lonafarnib for 3 days.\nGFP Localization and Fluorescence Microscopy. Forty-eight hours following transient transfection, the HeLa and HEK-293 cells were visualized for GFP localization using an LSM510 confocal microscope (Zeiss). […]"}, "[7]": {"system": "HeLa cells transfected with wild-type lamin A-CSIM, progerin-CSIM, progerin-SSIM or progerin-CSIL", "assay": "Nuclear blebbing and GFP localization in transiently transfected HeLa cells treated with FTI", "type": "cell-based", "conditions": "48 hours", "procedure": "Transient Transfections. Approximately 25,000 cells were plated per chamber of 4-chamber slides (Lab-Tek, Nalge Nunc International, #154526). After twenty-four hours, HeLa and HEK-293 cell lines were transiently transfected with 0.8 μg of each construct using LIPOFECTAMINE®2000 transfection reagent (Invitrogen) under standard conditions.\nas §1\nGFP Localization and Fluorescence Microscopy. Forty-eight hours following transient transfection, the HeLa and HEK-293 cells were visualized for GFP localization using an LSM510 confocal microscope (Zeiss). Following three-day treatment with lonafarnib, HGPS fibroblasts were washed two times with phosphate-buffered saline (PBS) (pH 7.2) and fixed for 10 minutes at room temperature with 1% paraformaldehyde in PBS. Following three washes with PBS, the cells were permeabilized for 5 minutes at room temperature with 0.5% Triton X-100 in PBS and blocked with 5% horse serum for 30 minutes at room temperature. Cells were then incubated for one hour at room temperature with the primary antibody diluted in blocking solution, a […] mouse anti-human lamin A/C at 1:10 (mAb3211, Chemicon). Three more washes with PBS were then followed by incubation with the secondary antibody, Alexa 488-conjugated donkey anti-mouse IgG (Molecular Probes), for 45 minutes and three additional PBS washes. Slides were then mounted with mounting medium containing DAPI (Vector Laboratories).\nMorphometric Analysis. To examine the overall percentage of blebbed cells in cells with different amounts and lengths of FTI treatment, 200 nuclei were classified as either blebbed, if they contained two or more lobulations, or not blebbed, as previously described (Goldman et al., Proc. Natl. Acad. Sci. USA 101:8963-8968, 2004). These classifications were done by three independent observers, all blinded to the specifics of the cells being examined, followed by averaging three independent data sets. Armitage's trend test (Armitage, Biometrics 11:375-386, 1955) was used to test for a dose-dependent response for each cell type."}}, "note": "Entries after “also recorded” stand apart in the source; their conditions may differ.", "data": [{"smiles": "NC(=O)N1CCC(CC(=O)N2CCC([C@H]3c4ncc(Br)cc4CCc4cc(Cl)cc(Br)c43)CC2)CC1", "note": "[lonafarnib]", "values": [{"measurement": "activity against human tumor xenografts", "setting": "[1]", "value": "active"}, {"measurement": "proliferation of several human cancer cell lines", "setting": "[2]", "value": "inhibit proliferation"}, {"measurement": "tolerability", "setting": "[3]", "value": "well tolerated"}, {"measurement": "protein farnesylation in vivo", "setting": "[4]", "value": "inhibits"}, {"measurement": "tolerability", "setting": "[4]", "value": "generally well tolerated"}, {"measurement": "anti-leukemic activity", "setting": "[5]", "value": "demonstrated"}, {"measurement": "nuclear blebbing in HGPS fibroblasts", "setting": "[6]", "value": "significant dose-dependent reduction; also recorded: reversion of the nuclear blebbing"}, {"measurement": "change of nuclear blebbing, wild-type lamin A-CSIM", "setting": "[7]; 0 to 2.0 μM", "value": "unchanged; also recorded: does not change significantly"}, {"measurement": "percentage of nuclear blebbing, wild-type lamin A-CSIM", "setting": "[7]; 0 to 2.0 μM", "value": "approximately 5%"}, {"measurement": "nuclear blebbing, progerin-CSIM", "setting": "[7]; 2 μM single dose at transfection", "value": "approaching normal blebbing percentages; also recorded: almost totally abolishes"}, {"measurement": "localization of progerin, progerin-CSIM", "setting": "[7]; 2 μM", "value": "relocalization of progerin into nucleoplasmic aggregates"}, {"measurement": "dose response of nuclear blebbing, progerin-CSIM", "setting": "[7]; single dose 0, 0.5, 1.0, 2.0 μM, p<0.0001", "value": "dramatic dose-dependent response"}, {"measurement": "nuclear blebbing, progerin-CSIL", "setting": "[7]; up to 2 μM", "value": "completely resistant; also recorded: resistant to FTI treatment; also recorded: resistant to inhibition of farnesylation"}, {"measurement": "phenotype, progerin-SSIM", "setting": "[7]; up to 2 μM", "value": "no difference; also recorded: does not change significantly"}]}]}
